Measurements reported in article PMC8110578, “Phenylethynylbenzyl-modified biguanides inhibit pancreatic cancer tumor growth” (Scientific Reports, 2021).

What was measured:
[1] = tested on: NB508 mouse pancreatic ductal adenocarcinoma cells; experiment: In vitro growth inhibition screen at 5 µM, NB508 cells; assay type: cell-based; conditions: 72 h at 37 °C
Excerpt: (§1) Figure 1 (A) Structure and crystal packing of previously studied PEB-disubstituted (A.1) and monosubstituted (A.2 and A.3) benzimidazolium salts. Compound A.1 is an efficient chloride transporter forming channels and generating holes in bacterial membranes and red blood cellular membranes. Compound A.2 penetrates phospholipid membranes but is less efficient as ion transporter as it forms more compact aggregates; its toxicity on RBC is lower than compound A.1. The replacement of the phenyl group with a methyl group in compound A.3 results in the formation of even more compact aggregates with even lower toxicity on RBC. (B) Structure of PEB-substituted biguanidium salts. For each biguanide we prepared three series of biguanidium salts with different counterions. (C) Synthesis of 4-(phenylethynyl)benzylbiguanide 1 and 4-(phenylethyl)benzylbiguanide 2; (a) Phenylacetylene, PdCl2PPh3, CuI, PPh3, Et3N, THF, 70 °C, o.n. (b) NaCN(BH3)3, EtOHNH4OAc sat./NH3, 80 °C, o.n (c) Dicyandiamide, TMSCl, THFanh., 145 °C, 1 h (d) Pd/C 10%, H2, EtOH/AcOEt, 60 °C, 2 h. (D) Synthesis of 4-(phenylethynylphenyl)biguanidium 3 and 4-(phenylethylphenyl)biguanidium 4 (a) (1) Boc2O, THF, 2 h, (2) Phenylacetylene, PdCl2PPh3, CuI, PPH3, Et3N, THF, 70°, o.n. (b) TFA, DCM, 60 °C, 2 h (c) Dicyandiamide, TMSCl, THFanh, 145 °C, 1 h (d) Pd/C 10%, H2, EtOH/AcOEt, 60 °C, 2 h. The NMR spectra of the synthesized compounds are given in Supplementary Figs. S1–S24. (E) Relative growth of NB508 mouse pancreatic ductal adenocarcinoma cells and IMR90 fibroblasts exposed to 5 µM of PEB-biguanidium salts. Cells were incubated for 72 h at 37 °C. Errors bars represent the standard error of the mean (SEM), *p < 0.05, **p < 0.01, Student’s t test. (F) Crystal structure of 1b showing its self-assembly in the solid state. Crystal data is available in Supplementary Tables S1–S8 and crystal packing in Supplementary Fig. S25. TEXT PRINTED IN THE PICTURE: (A) A.1: HC50: 0.15 mM | (A) A.2: HC50: 1 mM | (A) A.3: HC50: 150 mM
NB508 is an aggressive pro-metastatic pancreatic cancer cell line that we used previously to study the role of mitochondria in pancreatic cancer. […].

IMR90 fibroblasts = experiment: In vitro growth inhibition screen at 5 µM, IMR90 fibroblasts; assay type: cell-based, human; conditions: 72 h
Excerpt: as §1, with “The NMR spectra of the synthesized compounds are given in Supplementary Figs. S1–S24. (E) Relative growth of NB508 mouse pancreatic ductal adenocarcinoma cells and IMR90 fibroblasts exposed to 5 µM of PEB-biguanidium salts. Cells were incubated for 72 h at 37 °C. Errors bars represent the standard error of the mean (SEM), *p < 0.05, **p < 0.01, Student’s t test. (F) Crystal structure of 1b showing its self-assembly in the solid state. Crystal data is available in Supplementary Tables S1–S8 and crystal packing in Supplementary Fig. S25. TEXT PRINTED IN THE PICTURE: (A) A.1: HC50: 0.15 mM | (A) A.2: HC50: 1 mM | (A) A.3: HC50: 150 mM” left out

red blood cells = experiment: Hemolytic activity of PEB-biguanidium salts; assay type: cell-based; conditions: red blood cells 2% v/v in PBS, 1 h at 37 °C
Procedure: The toxicity of PEB-Biguanidiums salts was estimated through their hemolytic activity by incubating red blood cells (RBC) with the compounds for 1 h (See Supplementary Table S13 and Supplementary Fig. S29).
Experimental. Red blood cells in Alsever’s solution were centrifuged for 10 min at 300g, washed 3 times with PBS buffer, and resuspended in PBS at 2% v/v. To each well of a 96-well plate, 195 µL of red blood cell solution and 5 µL of biguanidium salt in DMSO were added, and the plate was incubated with light agitation for 1 h at 37 °C. The plate was then centrifuged for 10 min at 300g, and 50 µL of the supernatant solution of each well was transferred to another plate. Absorbance was measured at λ = 405 nm. Each measurement was performed in triplicate in three different experiments.

KP4 cells = experiment: Growth assay (crystal violet), KP4 cells; assay type: cell-based, human; conditions: Homo sapiens, KP-4, 72 h, KP4 cells, 3 days treatment, crystal violet retention assay; read-out: IC50 KP4
Procedure: (§2) All chemicals were purchased from Aldrich Chemicals in their highest purity and used without further purification. Deuterated dimethylsulfoxide (DMSO-d^6) and deuterated chloroform (CDCl3) were purchased from CDN Isotopes. NMR spectra were recorded on Bruker advance 400 and 100 spectrometers. Coupling constants are given in hertz (Hz) and chemical shifts are given in parts per million (ppm, δ) measured relative to the residual solvent (the multiplicity of the signals are given as s: singlet, d: doublet, t: triplet, and m: multiplet). High-resolution mass spectra (HRMS) were recorded on a TSQ Quantum Ultra (Thermo Scientific) triple quadrupole with accurate mass option instrument (Université de Montréal Mass Spectrometry Facility). MS experiences were performed using an UltrafleXtreme MALDI TOF/TOF mass spectrometer equipped with a SmartBeam II Nd:Yag/355 nm laser operating at 1 kHz and providing a laser focus down to 20 μm in diameter (Bruker Daltonics, Billerica, MA). The data acquisition for MS was performed in positive ion mode using the linear geometry with flexControl 3.4 (Bruker Daltonics, Billerica, MA). Acceleration voltage was set to + 25 kV and all other instrumental parameters (delayed extraction parameters, source voltages, detector gain, laser energy, etc.) were optimized for maximum S/N for the drug compounds. L-α-Phosphatidylcholine was purchased from Avanti Polar Lipids. Transport and depolarization studies as well as absorbance measurements were performed on a Varian Cary Eclipse fluorescence spectrophotometer. The hemolysis assays were performed on a Fluostar Optima plate reader. Single crystals of C18H18F3N5O3S were obtained from chloroform. A suitable crystal was selected and analysed on a Bruker Venture Metaljet diffractometer. Crystal violet retention assay was used for cell growth assays and IC50 were determined using Prism (GraphPad). NAD/NADH quantitation colorimetric kit (#K337-100) from Biovision was used according to manufacturer’s instructions. ECAR (extracellular acidification rate) and OCR of KP4 cells (oxygen consumption rate) were measured on a Seahorse XF-24 (Agilent).
(§3) Experimental. KP4 (Riken RCB1005) and PSN1 (ATCC: CRM-CRL-3211), were cultured in Dulbecco's modified Eagle's medium (DMEM) (Wisent, St-Bruno, QC) supplemented with 10 % of fetal bovine serum (FBS) (Wisent). HPNE hTERT (ATCC: CRL1423) were cultured in a mix of 75% DMEM without glucose (Sigma Cat#. D-5030) with additional 2 mM L-glutamine and 1.5 g/L sodium bicarbonate, 25% Medium M3 Base (Incell Corp. Cat# M300F- 500), fetal bovine serum 5% (wisent 10 ng/ml human recombinant EGF (Sigma-Aldrich), 5.5 mM D-glucose (Sigma-Aldrich), 750 ng/ml puromycin (Sigma-Aldrich). For dose-response assays, cells were seeded in 96 well plates (company). After 24 h, treatments were applied and cells were grown for 3 more days. Crystal violet retention assay used for cell growth assays were described previously^2. The data is expressed as relative absorbance of crystal violet extracted from the cells and diluted in 10 % acetic acid. IC50 were determined using Prism (GraphPad). Tumor spheres were grew according to Ferbeyre et al^3.

[2] = tested on: HPNE cells (normal immortalized pancreatic epithelial cells); experiment: Growth assay (crystal violet), HPNE cells; assay type: cell-based, human; conditions: 3 days treatment, crystal violet retention assay
Procedure: . The IC50 of most of the synthetic biguanides in HPNE cells was higher than for cancer cells (Supplementary Table S12).
as §2, §3

[3] = U-tube experiment (partition across a bulk hydrophobic solvent); assay type: physicochemical; conditions: 250 µM on cis side, up to 72 h
Procedure: (§4) Figure 2 (A) Partition of compounds in an U-tube experiment. Concentration of biguanide on the trans-side of the U-tube at 48 h and 72 h at 25 °C, after addition of 250 µM of biguanide on the cis-side. (B) Variation in the internal pH of HPTS-containing EYPC liposomes. Intravesicular solution: 1 mM HPTS, 10 mM HEPES, and 100 mM NaCl, adjusted to pH = 7.4, and extravesicular solution: 10 mM HEPES and 100 mM NaCl, adjusted to pH = 7.4. Biguanidiums were injected after 50 s at 5 mM (50 mol% relative to the 10 mM EYPC concentration), a NaOH pulse was induced at 300 s, and the liposomes were lysed with Triton-X at 550 s. Each curve is the average of three independent measurements. (C) Fluorescence of safranin O in the EYPC liposomes. Biguanidium salts were injected at 5 mM (50 mol% relative to the 10 mM EYPC concentration) at 50 s. Each curve is the average of three independent measurements. […] Mitochondrial isolation was performed according to the previously reported protocol.
Experimental. U-tube experiment was prepared by adding 800 µL of dichloromethane in a U-shaped tube as a representation of the hydrophobic lipid membrane. On the receiving end (trans side) of the tube was added 300 µL of distilled water while the other side (cis side) was filled with 300 µL of a 250 µM solution of the compound of interest at 25°C. At 48h and 72h, 100 µL aliquot of the trans side was diluted in 900 µL methanol and monitored by LCMS (292 m/z). Area under curve (AUC) was measured and fitted on a calibration curve.

[4] = HPTS assay, internal pH of EYPC liposomes; conditions: 5 mM (50 mol% relative to 10 mM EYPC), NaOH pulse at 300 s
Procedure: as §4

[5] = Safranin O assay, membrane potential of EYPC liposomes; conditions: 5 mM (50 mol% relative to 10 mM EYPC)
Procedure: as §4

[6] = tested on: KP4 cells sub-cutaneous xenografts; experiment: KP4 sub-cutaneous xenografts in nude mice; conditions: 50 mg/kg/day IP, 5 day/week, from day 11 post engraftment, 37 days
Excerpt: This dose was chosen from previous work on biguanides to treat mice with pancreatic cancer.
Figure 5 Progression of the volume of KP4 cells sub-cutaneous xenografts performed in nude mice over 37 days. […] (B) Body weight of mice seven days after treatment. […] Representative images shown. Scale bar = 100 µm. […] Results are shown in graphics comparing the percentage of cells stained in each category and the intensity of staining. (E,G) Images of the most representative phenotypes for KI67 staining (E) and cleaved caspase 3 (G).
Experimental. All experiments were performed in accordance to the rules of the in vivo ethical committe of University of Montreal (CDEA #17-103). 6-7 weeks old female nude mice (Hsd:Athymic Nude- Foxn1nu, Envigo) were implanted sub-cutaneously with 750.000 KP4 cells in 100μl of a sterile mix of 20% Matrigel (Corning) in saline solution. Tumor volume was determined by using a caliper, following the formula 4/3*Π*(L*W*T) were L represent the length of the tumor, W, the width, and T, the thickness (all measured in millimeter). […] The compounds were dissolved in the vehicle: 45% Propyleneglycol (Sigma-Aldrich) +5% Tween 80 (Sigma-Aldrich) + ddH2O.

KP4 tumor sections = experiment: KI67 and cleaved caspase 3 staining of tumor sections from treated mice; assay type: in vivo, nude mice; conditions: 50 mg/kg, tumor sections after treatment
Excerpt: (B) Body weight of mice seven days after treatment. […] Representative images shown. Scale bar = 100 µm.
To assess the mechanism of the antitumor activity, we stained tumor sections obtained from animals after the treatment protocol for proliferation marker KI67 and apoptosis marker cleaved caspase 3, and quantified the data according to the scoring key in Fig. 5C. […] However, there were no significant differences in staining for cleaved caspase 3 […].

SMILES | Growth inhibition of NB508 cells [1] | Selectivity towards cancer cells (NB508 vs IMR90 fibroblasts) (IMR90 fibroblasts) | HC 10% (µM) (red blood cells) | HC 10% (µg/ml) (red blood cells) | IC50 (KP4 cells) | IC50 [2] | Crossing to the trans-aqueous side of the U-tube (in words) [3] | Change of internal vesicular pH (HPTS) [4] | Membrane depolarization (Safranin-O fluorescence) [5] | Effect on tumor volume [6] | KI67 staining in tumors (KP4 tumor sections)
N=C(N)NC(=N)NCc1ccc(C#Cc2ccccc2)cc1 [1a, 4-(phenylethynyl)benzylbiguanide] | most important antiproliferative activities | good selectivity towards cancer cells | > 175 µM | > 100 µg/mL | 7.55 µM | 16.1 µM | – | – | – | – | –
[H]/N=C(/N)N/C(=N/[H])NCCc1ccccc1 [phenformin, reference compound] | no effect was observed | – | – | – | – | – | only traces | no membrane activity | did not show this activity | only modest or non-significant effects | to a smaller extent
